{"source": "patent US11154563B2", "about": "“Immunoproteasome inhibitors” (Principia Biopharma Inc., priority 2017, dated 2021)", "key": {"[1]": {"biological_target": "immunoproteasome LPM2/β1i subunit (Homo sapiens, UniProt P28065+P40306)", "experiment": "Caliper-based proteasome enzymatic activity assay, LMP2", "assay_type": "biochemical", "conditions": "human recombinant immunoproteasome 0.3 nM, FAM-peptide substrate 1 μM, 2 h at rt", "outline": "(§1)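 Recombinant human immunoproteasome or constitutive proteasome (0.3 nM) with 1 μM FAM-peptide in 20 mM Hepes pH 7.4, 0.015% SDS, 0.01% BSA; LMP7/β5c ran 3 h at rt and were stopped with 5 uM carfilzomib, LMP2 ran 2 h and was stopped with 6.7 uM ixazomib. Cleaved product quantified by microfluidic separation; IC50 from percent inhibition.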"}, "[2]": {"biological_target": "constitutive proteasome β5c unit (Homo sapiens, UniProt P20618+P28074)", "experiment": "Caliper-based proteasome enzymatic activity assay, β5c", "assay_type": "biochemical", "conditions": "human recombinant constitutive proteasome 0.3 nM, FAM-peptide substrate 1 μM, 3 h at rt; read-out: β5c subunit IC50", "outline": "as §1"}, "[3]": {"biological_target": "T1, PBMC/LMP7 (Homo sapiens, UniProt P28062)", "T1 construct": "endogenous in cells; host or cells: primary human PBMC", "experiment": "Inhibition of proteasome activity in cells (Proteasome-Glo), PBMC", "assay_type": "cell-based", "conditions": "primary human PBMC, 2 h incubation, Suc-LLVY-aminoluciferin substrate", "experimental": "The cell-based effects of a compound described herein on the immunoproteasome are determined by measuring inhibition of proteasome activity in cells using the Proteasome-Glo™ Cell-Based Reagent (Promega, Madison Wis.). The Proteasome-Glo™ assay contains a specific luminogenic proteasome substrate in a buffer optimized for cell permeabilization, proteasome activity, and luciferase activity. For the chymotrypsin-like activity (LMP7 and […]), the peptide substrate is Suc-LLVY-aminoluciferin (Succinyl-leucine-leucine-valine-tyrosine-aminoluciferin). Cleavage of the substrate by proteasome results in luminescent signal which is proportional to the proteasome activity. The cell line THP-1 (a monocytic leukemia cell line enriched in immunoproteasome), the cell line HT-29 (a colorectal adenocarcinoma cell line enriched in constitutive proteasome), and primary human peripheral blood mononuclear cells (PBMC) are used to assess proteasome activity. Cells are seeded in a 96-well plate at 10,000 cells per well in RPMI 1640 high glucose medium with 10% fetal bovine serum (FBS). Compound dilutions are added to cells starting at a concentration of 5 uM and decreasing in tripling dilutions. The final DMSO concentration is 1%. The concentration range is adjusted as needed for compounds of different potencies. The cells treated with compounds are incubated for 2 h at 37° C. in 5% CO2. At the end of the 2 h incubation period, cells are transferred to white 384 well assay plates. 20 uL of Proteasome-Glo™ Reagent is added to each well and incubated for 10 min at rt. The plate is read in the Analyst HT instrument (Molecular Devices, Sunnyvale, Calif.) using luminescence mode. The percent inhibition of activity is plotted as a function of log compound concentration. The IC50 is then calculated for each compound using Prism software from GraphPad Software Inc. (San Diego, Calif.)."}, "[4]": {"biological_target": "immunoproteasome LMP7/B5i subunit (Homo sapiens, UniProt P20618+P28062)", "experiment": "Caliper-based proteasome enzymatic activity assay, LMP7", "assay_type": "biochemical", "conditions": "human recombinant immunoproteasome 0.3 nM, FAM-peptide substrate 1 μM, 3 h at rt", "outline": "as §1"}, "[5]": {"tested_on": "Th1/17 differentiation", "conditions": "human and mouse; cited from earlier work"}, "[6]": {"tested_on": "murine DSS-induced colitis model", "conditions": "cited from earlier work"}, "[7]": {"tested_on": "Hashimoto's thyroiditis model", "conditions": "autoantibody-driven model; cited from earlier work"}, "[8]": {"tested_on": "MRL/lpr lupus model", "conditions": "cited from earlier work"}, "[9]": {"tested_on": "murine collagen-induced arthritis", "conditions": "including reduction of inflammation and bone erosion; cited from earlier work"}, "[10]": {"tested_on": "prostate PC-3 cell line", "conditions": "in vitro; cited from earlier work"}, "[11]": {"tested_on": "tumor growth", "conditions": "cited from earlier work"}, "[12]": {"tested_on": "multiple myeloma cell lines and primary patient tumor cells", "conditions": "including cells resistant to conventional and novel prior therapies; cited from earlier work"}}, "note": "pIC50: −log10 of the molar value.", "data": [{"smiles": "CC(C)(C)C=C(C#N)C(=O)N1CCCC[C@@H]1COC(=O)N[C@@H](Cc1ccccc1)B(O)O", "note": "[Example 15, ((R)-1-(((((R)-1-(2-cyano-4,4-dimethylpent-2-enoyl)piperidin-2-yl)methoxy)carbonyl)amino)-2-phenylethyl)boronic acid]", "values": [{"measurement": "pIC50", "setting": "[1]", "result": "< 5.30"}, {"measurement": "pIC50", "setting": "[2]", "result": 5.38}, {"measurement": "pIC50", "setting": "[3]", "result": 8.48}, {"measurement": "pIC50", "setting": "[4]", "result": 8.26}]}, {"smiles": "CC(C)C=C(C#N)C(=O)N1CCCC1CCC(=O)N[C@@H](Cc1ccccc1)B(O)O", "note": "(single isomer, unassigned) [Example 4]", "values": [{"measurement": "pIC50", "setting": "[1]", "result": 5.61}, {"measurement": "pIC50", "setting": "[2]", "result": 6.20}, {"measurement": "pIC50", "setting": "[3]", "result": 7.41}, {"measurement": "pIC50", "setting": "[4]", "result": 8.40}]}, {"smiles": "CC(C)C=C(C#N)C(=O)N1CCC[C@@H]1COC(=O)N[C@@H](Cc1ccccc1)B(O)O", "note": "[Example 7, ((R)-1-(((((R)-1-(2-cyano-4-methylpent-2-enoyl)pyrrolidin-2-yl)methoxy)carbonyl)amino)-2-phenylethyl)boronic acid]", "values": [{"measurement": "pIC50", "setting": "[1]", "result": "< 5.30"}, {"measurement": "pIC50", "setting": "[2]", "result": "< 5.30"}, {"measurement": "pIC50", "setting": "[3]", "result": 8.03}, {"measurement": "pIC50", "setting": "[4]", "result": 8.59}]}, {"smiles": "CC(C)C=C(C#N)C(=O)N1CCCC1CCC(=O)N[C@@H](Cc1ccccc1)B(O)O", "note": "(single isomer, unassigned) [Example 3]", "values": [{"measurement": "pIC50", "setting": "[1]", "result": 5.46}, {"measurement": "pIC50", "setting": "[2]", "result": "< 5.30"}, {"measurement": "pIC50", "setting": "[3]", "result": 6.89}, {"measurement": "pIC50", "setting": "[4]", "result": 7.22}]}, {"smiles": "COc1ccc(C[C@H](NC(=O)[C@H](C)NC(=O)CN2CCOCC2)C(=O)N[C@@H](Cc2ccccc2)C(=O)[C@@]2(C)CO2)cc1", "note": "[PR-957]", "values": [{"measurement": "block of Th1/17 differentiation", "setting": "[5]", "result": "potently block"}, {"measurement": "inflammation and tissue destruction", "setting": "[6]", "result": "reduced inflammation and tissue destruction"}, {"measurement": "efficacy in Hashimoto's thyroiditis model", "setting": "[7]", "result": "efficacious"}, {"measurement": "disease progression", "setting": "[8]", "result": "prevented disease progression"}, {"measurement": "plasma cell numbers and anti-dsDNA IgG levels", "setting": "[8]", "result": "reduced plasma cell numbers and anti-dsDNA IgG levels"}, {"measurement": "disease activity in collagen-induced arthritis", "setting": "[9]", "result": "significantly inhibit disease activity"}]}, {"smiles": "CC(C)C=C(C#N)C(=O)N1CCC[C@@H]1COCCC(=O)N[C@@H](Cc1ccccc1)B(O)O", "note": "[Example 1, ((R)-1-(3-(((R)-1-(2-cyano-4-methylpent-2-enoyl)pyrrolidin-2-yl)methoxy)propanamido)-2-phenylethyl)boronic acid]", "values": [{"measurement": "pIC50", "setting": "[2]", "result": 5.84}, {"measurement": "pIC50", "setting": "[3]", "result": 6.72}, {"measurement": "pIC50", "setting": "[4]", "result": 7.10}]}, {"smiles": "CCCCCCC(=O)N[C@@H](C)C(=O)N[C@@H](CC(C)C)C(=O)[C@@]1(CO[Si](C)(C)C(C)(C)C)CO1", "note": "[UK-101]", "values": [{"measurement": "apoptosis of PC-3 cells", "setting": "[10]", "result": "induced apoptosis"}, {"measurement": "tumor growth in vivo", "setting": "[11]", "result": "significantly suppressed tumor growth"}]}, {"smiles": "CC(C)C=C(C#N)C(=O)N1CCCCC1CCC(=O)N[C@@H](Cc1ccccc1)B(O)O", "note": "(single isomer, unassigned) [Example 6]", "values": [{"measurement": "pIC50", "setting": "[1]", "result": 6.02}, {"measurement": "pIC50", "setting": "[2]", "result": "< 5.30"}, {"measurement": "pIC50", "setting": "[3]", "result": 6.85}, {"measurement": "pIC50", "setting": "[4]", "result": 7.24}]}, {"smiles": "CC1=C(C(=O)N[C@H](C)C(=O)N[C@@H](Cc2c[nH]c3ccccc23)C(=O)N[C@@H](Cc2ccccc2)C(=O)[C@@]2(C)CO2)Cc2ccccc21", "note": "[PR-924]", "values": [{"measurement": "growth of multiple myeloma cells", "setting": "[12]", "result": "inhibit growth"}]}, {"smiles": "CC(C)C=C(C#N)C(=O)N1CCCC[C@@H]1COC(=O)N[C@@H](Cc1ccccc1)B(O)O", "note": "[Example 2, ((R)-1-(((((R)-1-(2-cyano-4-methylpent-2-enoyl)piperidin-2-yl)methoxy)carbonyl)amino)-2-phenylethyl)boronic acid]", "values": [{"measurement": "pIC50", "setting": "[1]", "result": "< 5.30"}, {"measurement": "pIC50", "setting": "[2]", "result": "< 5.30"}, {"measurement": "pIC50", "setting": "[3]", "result": 6.38}, {"measurement": "pIC50", "setting": "[4]", "result": 7.26}]}, {"smiles": "CC(C)C=C(C#N)C(=O)N1CCCCC1CCC(=O)N[C@@H](Cc1ccccc1)B(O)O", "note": "(single isomer, unassigned) [Example 5]", "values": [{"measurement": "pIC50", "setting": "[1]", "result": 6.35}, {"measurement": "pIC50", "setting": "[2]", "result": 5.98}, {"measurement": "pIC50", "setting": "[3]", "result": 7.64}, {"measurement": "pIC50", "setting": "[4]", "result": 8.12}]}, {"smiles": "CC(C)(C)C=C(C#N)C(=O)N1CCC[C@@H]1COC(=O)N[C@@H](Cc1ccccc1)B(O)O", "note": "[Example 10, ((R)-1-(((((R)-1-(2-cyano-4,4-dimethylpent-2-enoyl)pyrrolidin-2-yl)methoxy)carbonyl)amino)-2-phenylethyl)boronic acid]", "values": [{"measurement": "pIC50", "setting": "[1]", "result": "< 5.30"}, {"measurement": "pIC50", "setting": "[2]", "result": 5.47}, {"measurement": "pIC50", "setting": "[3]", "result": 8.15}, {"measurement": "pIC50", "setting": "[4]", "result": 8.74}]}]}
